Tests used:
[1] = test system: HCV genotype 1b subgenomic replicon in Huh-5-2 cells; assay: Replicon assay on Huh5-2; assay type: cell-based, Hepatitis C virus; details: for Replicon assay on Huh5-2 SI (ratio of CC50 to EC50): Huh-5-2 cells; for anti-HCV activity and toxicity in words: Huh-5-2 replicon and MTS
recombinant HCV NS5BCΔ21 = recombinant HCV NS5BCΔ21 (Hepatitis C virus genotype 1b, UniProt O92972); assay: NS5B polymerase primer-dependent elongation assay; assay type: biochemical, HCV genotype 1b (HC-J4); details: for fold reduction in potency against NS5B relative to derivative 8: ratio of IC50 values vs 8
Huh-9-13 cells = assay: MTS assay and microscopic analysis on Huh 9-13 cells; assay type: cell-based
NS5B = details: read-out: NS5B IC50 reported by Kumar et al.; literature value; cited from earlier work

Structure (SMILES): Cc1ccc(COC(=O)c2cn(Cc3ccc(C(F)(F)F)cc3F)c3cc(Cl)c(N)cc3c2=O)cc1 [Compound 4, 4-Methylbenzyl 6-amino-7-chloro-1-[2-fluoro-4-(trifluoromethyl)benzyl]-4-oxo-1,4-dihydro-3-quinolinecarboxylate]
- Replicon assay on Huh5-2 SI (ratio of CC50 to EC50) [1]: >2.5
- anti-HCV activity and toxicity in words [1]: neither active nor toxic

Structure (SMILES): Nc1cc2c(=O)c(C(=O)OCc3ccc(Cl)cc3)cn(Cc3ccc(Cl)cc3)c2cc1N1CCN(c2nc3ccccc3s2)CC1 [Compound 9, 4-Chlorobenzyl 6-amino-7-[4-(1,3-benzothiazol-2-yl)-1-piperazinyl]-1-(4-chlorobenzyl)-4-oxo-1,4-dihydro-3-quinolinecarboxylate]
- Replicon assay on Huh5-2 SI (ratio of CC50 to EC50) [1]: >17

Structure (SMILES): Nc1cc2c(=O)c(C(=O)O)cn(Cc3ccc(Cl)cc3)c2cc1N1CCN(c2ccccn2)CC1 [Compound 28, 6-amino-1-(4-chlorobenzyl)-4-oxo-7-[4-(2-pyridinyl)-1-piperazinyl]-1,4-dihydro-3-quinolinecarboxylic acid]
- fold reduction in potency against NS5B relative to derivative 8 (recombinant HCV NS5BCΔ21): 345 fold
- Replicon assay on Huh5-2 SI (ratio of CC50 to EC50) [1]: >28

Structure (SMILES): CN1CCN(c2cc3c(cc2N)c(=O)c(C(=O)OCc2ccc(Cl)cc2)cn3Cc2ccc(Cl)cc2)CC1 [Compound 7, 4-Chlorobenzyl 6-amino-1-(4-chlorobenzyl)-7-(4-methyl-1-piperazinyl)-4-oxo-1,4-dihydro-3-quinolinecarboxylate]
- fold higher NS5B inhibition than reference compound 2 (recombinant HCV NS5BCΔ21; head to head, same assay conditions): 5 fold

Structure (SMILES): Nc1cc2c(=O)c(C(=O)OCc3ccc(Cl)cc3)cn(Cc3ccc(Cl)cc3)c2cc1N1CCN(c2cccc(C(F)(F)F)c2)CC1 [Compound 10, 4-Chlorobenzyl 6-amino-1-(4-chlorobenzyl)-4-oxo-7-{4-[3-(trifluoromethyl)phenyl]-1-piperazinyl}-1,4-dihydro-3-quinolinecarboxylate]
- Replicon assay on Huh5-2 SI (ratio of CC50 to EC50) [1]: >6

Structure (SMILES): Nc1cc2c(=O)c(C(=O)OCc3ccc(Cl)cc3)cn(Cc3ccc(Cl)cc3)c2cc1N1CCN(c2ccccn2)CC1 [Compound 8, 4-Chlorobenzyl 6-amino-1-(4-chlorobenzyl)-4-oxo-7-[4-(2-pyridinyl)-1-piperazinyl]-1,4-dihydro-3-quinolinecarboxylate]
- cellular morphology by microscopic analysis (Huh-9-13 cells): cell aggregation

Structure (SMILES): CCOC(=O)c1cn(Cc2ccc(Cl)cc2)c2cc(N3CCN(c4ccccn4)CC3)c(N)cc2c1=O [Compound 27, Ethyl 6-amino-1-(4-chlorobenzyl)-4-oxo-7-[4-(2-pyridinyl)-1-piperazinyl]-1,4-dihydro-3-quinolinecarboxylate]
- fold reduction in potency against NS5B relative to derivative 8 (recombinant HCV NS5BCΔ21): ~ 45 fold

Structure (SMILES): Nc1cc2c(=O)c(C(=O)OCc3ccc(Cl)cc3)cn(Cc3ccc(Cl)cc3)c2cc1Cl [Compound 5, 4-Chlorobenzyl 6-amino-7-chloro-1-(4-chlorobenzyl)-4-oxo-1,4-dihydro-3-quinolinecarboxylate]
- inhibition of NS5B RdRp activity in preliminary screening (recombinant HCV NS5BCΔ21; 25 µM compound concentration): inactive
- anti-HCV activity and toxicity in words [1]: neither active nor toxic

Structure (SMILES): COc1cc2c(=O)c(C(=O)OCc3ccc(C)cc3)cn(Cc3ccc(C(F)(F)F)cc3F)c2cc1OC [Compound 2, reference compound]
- IC50 (NS5B): 8 nM
- selectivity of anti-HCV effect from dose-response curve ([1]; Huh-5-2, data not shown): non-selective anti-HCV agent

Source: article PMC3954902 (Journal of medicinal chemistry, 2013)
